Laboratory results: the NIST ThermoML archive (doi:10.1021/je4009415)

Assay: xn = mol fraction of the nth substance listed
Conditions: Liquid, Vibrating tube method

CCOC(=O)CC [ethyl propanoate] + CCCCCCCCC
Conditions	mass density [kg/m3]
288.15 K, x1 = 0.0545	727.07
288.15 K, x1 = 0.1159	733.36
288.15 K, x1 = 0.1434	736.52
288.15 K, x1 = 0.2218	745.49
288.15 K, x1 = 0.2412	747.88
288.15 K, x1 = 0.3158	757.46
288.15 K, x1 = 0.3579	763.17
288.15 K, x1 = 0.4121	770.89
288.15 K, x1 = 0.462	778.51
288.15 K, x1 = 0.5039	785.25
288.15 K, x1 = 0.5537	793.58
288.15 K, x1 = 0.6035	802.47
288.15 K, x1 = 0.6328	807.91
288.15 K, x1 = 0.6935	819.81
288.15 K, x1 = 0.7463	830.79
288.15 K, x1 = 0.7907	840.69
288.15 K, x1 = 0.895	866.09
288.15 K, x1 = 0.9488	880.62
288.15 K, x1 = 1	895.58
298.15 K, x1 = 0.0538	718.94
298.15 K, x1 = 0.0883	722.45
298.15 K, x1 = 0.142	728.05
298.15 K, x1 = 0.2152	736.31
298.15 K, x1 = 0.3007	746.83
298.15 K, x1 = 0.3555	754.11
298.15 K, x1 = 0.4078	761.4
298.15 K, x1 = 0.4592	769.02
298.15 K, x1 = 0.4988	775.19
298.15 K, x1 = 0.5511	783.72
298.15 K, x1 = 0.5917	790.84
298.15 K, x1 = 0.6562	802.56
298.15 K, x1 = 0.6962	810.32
298.15 K, x1 = 0.741	819.48
298.15 K, x1 = 0.7883	829.57
298.15 K, x1 = 0.8559	845.47
298.15 K, x1 = 0.9034	857.27
298.15 K, x1 = 0.9521	870.29
298.15 K, x1 = 1	884.15
308.15 K, x1 = 0.0558	711.17
308.15 K, x1 = 0.089	714.43
308.15 K, x1 = 0.1555	721.34
308.15 K, x1 = 0.2171	728.16
308.15 K, x1 = 0.2586	733.03
308.15 K, x1 = 0.3081	739.12
308.15 K, x1 = 0.3829	748.94
308.15 K, x1 = 0.4013	751.5
308.15 K, x1 = 0.4533	759.02
308.15 K, x1 = 0.5068	767.11
308.15 K, x1 = 0.5509	774.2
308.15 K, x1 = 0.6035	783.03
308.15 K, x1 = 0.6525	791.81
308.15 K, x1 = 0.6998	800.82
308.15 K, x1 = 0.7473	810.39
308.15 K, x1 = 0.794	820.41
308.15 K, x1 = 0.8533	833.93
308.15 K, x1 = 0.9006	845.51
308.15 K, x1 = 0.9506	858.66
308.15 K, x1 = 1	872.62
318.15 K, x1 = 0.0516	702.64
318.15 K, x1 = 0.0909	706.6
318.15 K, x1 = 0.1617	713.7
318.15 K, x1 = 0.219	719.88
318.15 K, x1 = 0.2413	722.49
318.15 K, x1 = 0.2923	728.44
318.15 K, x1 = 0.3518	735.96
318.15 K, x1 = 0.4062	743.15
318.15 K, x1 = 0.4541	749.92
318.15 K, x1 = 0.5056	757.57
318.15 K, x1 = 0.556	765.57
318.15 K, x1 = 0.6001	772.83
318.15 K, x1 = 0.6514	781.78
318.15 K, x1 = 0.6939	789.72
318.15 K, x1 = 0.7552	801.69
318.15 K, x1 = 0.7988	810.87
318.15 K, x1 = 0.8559	823.94
318.15 K, x1 = 0.9062	835.91
318.15 K, x1 = 0.9524	847.95
318.15 K, x1 = 1	861.08
328.15 K, x1 = 0.0514	694.83
328.15 K, x1 = 0.0965	699.04
328.15 K, x1 = 0.1572	705.05
328.15 K, x1 = 0.2061	710.14
328.15 K, x1 = 0.2627	716.42
328.15 K, x1 = 0.3163	722.76
328.15 K, x1 = 0.3619	728.36
328.15 K, x1 = 0.4059	734.14
328.15 K, x1 = 0.4602	741.6
328.15 K, x1 = 0.5053	748.09
328.15 K, x1 = 0.5543	755.65
328.15 K, x1 = 0.6024	763.42
328.15 K, x1 = 0.6525	772.01
328.15 K, x1 = 0.6996	780.61
328.15 K, x1 = 0.7535	791.02
328.15 K, x1 = 0.8019	801
328.15 K, x1 = 0.8606	813.96
328.15 K, x1 = 0.8933	821.83
328.15 K, x1 = 0.9504	836
328.15 K, x1 = 1	849.41
